Values of other authors, collected in patent US20140348931A1, “SUSTAINED-RELEASE TOPIRAMATE FORMULATIONS” (CADILA HEALTHCARE LIMITED, priority 2013, published 2014).

Settings: in vivo

- half-life: 21 h
Compound: CC1(C)OC2[C@@H](CO[C@@]3(COS(N)(=O)=O)OC(C)(C)O[C@@H]23)O1 (stereo partly drawn) [topiramate, 2, 3: 4, 5 Di-O-isopropylidene-β-D-fructopyranose sulfamate]
